Data reported in patent US20240287062A1, “NAPHTHYRIDONE COMPOUNDS FOR INHIBITION OF RAF KINASES AND/OR BCR-ABL TYROSINE KINASES” (Enliven Inc., priority 2021, published 2024).
Like-named read-outs stand apart in the source and are kept apart here.

Assays:
Type in all cases: cell-based
[1] = system: phosphorylated ERK (pERK); test: Detection of phosphorylated ERK (pERK), AlphaLISA in A375 cells; details: four hours incubation, inhibition of ERK phosphorylation, read-out: PERK ELISA (IC50)
Method: A375 cells were counted and seeded at 10,000 cells/well in 384 well plates (Corning 3764) and allowed to adhere overnight.
Compounds were dissolved and serially diluted in DMSO. The compounds were then added, mixed, and incubated for four hours at 37° C., 5% CO2. Compounds were added using four-fold dilutions at final concentrations ranging from 10 μM to 0.01 nM. DMSO only and 10 uM staurosporine were added as high and low controls.
Following the four-hour incubation with compounds, cell lysates were prepared and AlphaLISA assay measuring phosphorylated ERK was performed. Media was removed using the Apricot Designs pipettor. Lysis buffer was made from 1× AlphaLISA SureFire Assay Kit (AlphaLISA SureFire Ultra pERK 12 (Thr202/Tyr204) ALSU-PERK-A50K) lysis buffer with protease and phosphatase inhibitors. Cells were lysed by adding 10 uL to all the wells and mixed for 40 minutes on a plate shaker. 10 uL cell lysate was transferred to a new Optiplate (PerkinElmer 6007290) and incubated with 5 uL 1× acceptor mix for 2 hours in the dark. 5 uL of 1× donor mix was added to all wells and mixed by shaking followed by overnight incubation in the dark.
pERK AlphaLISA signal was read on the Envision using standard AlphaLISA settings. Percent inhibition of ERK phosphorylation was calculated by % Inhibition=100×(LumHC−LumSample)/(LumHC−LumLC). The low and high controls (LC/HC) are generated from lysate from wells with cells treated with DMSO or […] Staurosporine (BioAustralis, cat #BIA-S1086), […]. IC50 values were calculated by fitting the Curve using XLfit (v5.3.1.3), equation 201: Y=Bottom+(Top−Bottom)/(1+10^((Log IC50−X)*HillSlope)).

[2] = system: K562 cells; test: Cell viability assay (CellTiter Glo); details: K562 cells grown as in Example B1, read-out: BRAF Cytotoxicity (IC50, nM) K562
Method: K562 cells, cultured in Iscove's Modified Dulbecco's Media (IMDM) supplemented with 10% FBS, were harvested at 50-80% confluency and plated at 2,000 cells per well in 384-well tissue culture plates. A subset of wells contained media only (low control, LC). Compounds were serially diluted in DMSO. 40 nL of compound or DMSO only (high control, HC) were added to each well using an Echo 550 liquid handler (Labcyte). The plates were placed in a 37° C. incubator with 5% CO2 for 72 hours. Cell viability was measured using a CellTiter-Glo luminescent cell viability assay (Promega), which allows for relative quantification of metabolically active cells by luminescence-based measurements of intracellular ATP concentrations. Briefly, plates were removed from the incubator and equilibrated for 15 minutes at room temperature prior to the addition of 40 μL of CellTiter-Glo reagent. Plates were then incubated for 30 minutes at room temperature. Luminescence was measured using an EnSpire plate reader (Perkin Elmer). As noted above, luminescence values from wells with DMSO only or media without cells were used as high and low controls (HC and LC), respectively. Normalized percent viability was calculated as follows: percent viability=100×(LumSample−LumLC)/(LumHC−LumLC). IC50 values were calculated using the XLFit software.
(§1) Cell viability was measured in the following MAPK pathway mutant cancer cell lines: A375 (BRAF V600E), HepG2 (NRAS Q61L), SK-MEL-30 (NRAS Q61K), and OCI-AML-2 (MBNL1-CRAF fusion). Cell viability was also measured in K562 cells.
(§2) Table 6 provides the growth media, number of cells seeded per well and drug treatment times for the each cell line. K562 cells were grown as described in Example B1 above.
(§3) Compounds were dissolved in DMSO and serially diluted. Serially-diluted compound or a DMSO only control (high control, “HC”) was added to the plated cells in each well. Compounds were tested at concentrations of about 10 μM to 0.51 nM, using three-fold dilutions. The final proportion of DMSO never exceeded 0.1%.
(§4) Plates were placed in a 37° C., […] incubator for the indicated treatment times (Table B1). Plates were then removed from the incubator and equilibrated for 15 minutes at room temperature. 40 μl of CellTiter Glo reagent (Promega) was added to measure the relative level of metabolically active cells by quantifying intracellular ATP concentrations. Plates were incubated for 30 minutes at room temperature, and luminescence was measured. Percent viability was normalized to a vehicle control only using the following formula: 0 viability=100×(LumSample−LumLC)/(LumHC−LumLC). Graphical curves were fitted using a nonlinear regression model with a sigmoidal dose response.

[3] = system: A375 (BRAF V600E); test: Cell viability assay (CellTiter Glo)
Method: as §1
(§5) A375, HepG2, SK-MEL-30 and OCI-AML-2 cells were grown in the appropriate growth medium as described in Table B2 below, and harvested at 50-80% confluence. Cells were counted and seeded at their appropriate density (see Table B1) in a 384-well plate (Corning 3570). A375, HepG2 and SK-MEL-30 were allowed to adhere overnight prior to treatment and the OCI-AML-2 were treated immediately for the indicated drug treatment times (Table 6).
as §2, §3, §4

[4] = system: HepG2 (NRAS Q61L); test: Cell viability assay (CellTiter Glo); details: HepG2, 750 cells per well, read-out: BRAF Cytotoxicity (IC50, nM) HEPG2
Method: as §1, §5, §2, §3, §4

[5] = system: SK-MEL-30 (NRAS Q61K); test: Cell viability assay (CellTiter Glo); details: SK-MEL-30, 750 cells per well, read-out: BRAF Cytotoxicity (IC50, nM) SK-MEL-30
Method: as §1, §5, §2, §3, §4

[6] = system: OCI-AML-2 (MBNL1-CRAF fusion); test: Cell viability assay (CellTiter Glo); details: OCI-AML-2, 1000 cells per well, read-out: BRAF Cytotoxicity (IC50, nM) OCI-AML-2
Method: as §1, §5, §2, §3, §4

[7] = A375, 250 cells seeded per well, 72 hours, read-out: BRAF Cytotoxicity (IC50, nM) A375 (250 cells)
[8] = A375, 1000 cells seeded per well, 72 hours, read-out: BRAF Cytotoxicity (IC50, nM) A375 (1000 cells)
[9] = Homo sapiens, A-375, 72 h, A375, 250 cells seeded per well, read-out: BRAF Cytotoxicity (IC50, nM) A375 (250 cells)
[10] = Homo sapiens, A-375, 72 h, A375, 1000 cells seeded per well, read-out: BRAF Cytotoxicity (IC50, nM) A375 (1000 cells)

Compound | IC50 [1] | IC50 ([1]; Homo sapiens, A-375, 4 h) | IC50 ([2]; Homo sapiens) | IC50 [3, 7] | IC50 [3, 8] | IC50 ([4]; 120 hours) | IC50 ([5]; 120 hours) | IC50 ([6]; 72 hours) | IC50 [3, 9] | IC50 [3, 10] | IC50 ([4]; Homo sapiens, HepG2, 120 h) | IC50 ([5]; Homo sapiens, SK-MEL-30, 120 h) | IC50 ([6]; Homo sapiens, OCI-AML2, 72 h) | IC50 [2]
CCC(=O)c1cc(C)c(-c2cc3cnc(NC(=O)[C@H]4C[C@H]4F)cc3n(C)c2=O)cn1 [Compound 148, (1R,2R)-2-fluoro-N-(1-methyl-3-(4-methyl-6-propionylpyridin-3-yl)-2-oxo-1,2-dihydro-1,6-naphthyridin-7-yl)cyclopropane-1-carboxamide] |  | 19.3 nM | 2640 nM |  |  |  |  |  |  |  |  |  |  | 
CC[C@H](O)c1cc(C)c(-c2cc3cnc(NC(=O)C4CC4)cc3n(C)c2=O)cn1 [Compound 69, N-(3-[6-[(1S)-1-hydroxypropyl]-4-methylpyridin-3-yl]-1-methyl-2-oxo-1,6-naphthyridin-7-yl)cyclopropanecarboxamide] |  | 43.1 nM | 496 nM |  |  |  |  |  | 372 nM | 354 nM | 107 nM | 517 nM | 485 nM | 
CC[C@H](O)c1cc(C)c(-c2cc3cnc(NC(=O)[C@H]4C[C@H]4F)cc3n(C)c2=O)cn1 [Compound 108, (1R,2R)-2-fluoro-N-(3-(6-((S)-1-hydroxypropyl)-4-methylpyridin-3-yl)-1-methyl-2-oxo-1,2-dihydro-1,6-naphthyridin-7-yl)cyclopropane-1-carboxamide] |  | 17.4 nM | 1980 nM |  |  |  |  |  | 422 nM | 308 nM | 88.7 nM | 311 nM | 309 nM | 
CCCC(=O)c1cc(C)c(-c2cc3cnc(NC(=O)[C@@H]4C[C@@H]4F)cc3n(C)c2=O)cn1 [Compound 152, (1S,2S)—N-(3-(6-butyryl-4-methylpyridin-3-yl)-1-methyl-2-oxo-1,2-dihydro-1,6-naphthyridin-7-yl)-2-fluorocyclopropane-1-carboxamide] |  | 8.99 nM | 534 nM |  |  |  |  |  | 116 nM |  | 257 nM | 585 nM | 412 nM | 

Further lines, with some results ahead:

IC50 [1] | IC50 ([1]; Homo sapiens, A-375, 4 h) | Compound | IC50 ([2]; Homo sapiens) | IC50 [3, 7] | IC50 [3, 8] | IC50 ([4]; 120 hours) | IC50 ([5]; 120 hours) | IC50 ([6]; 72 hours) | IC50 [3, 9] | IC50 [3, 10] | IC50 ([4]; Homo sapiens, HepG2, 120 h) | IC50 ([5]; Homo sapiens, SK-MEL-30, 120 h) | IC50 ([6]; Homo sapiens, OCI-AML2, 72 h) | IC50 [2]
78.5 nM |  | CCC(O)c1cc(C)c(-c2cc3cnc(NC(C)=O)cc3n(C)c2=O)cn1 (single isomer, unassigned) [Example S59, Enantiomer A, N-(3-(6-(1-hydroxypropyl)-4-methylpyridin-3-yl)-1-methyl-2-oxo-1,2-dihydro-1,6-naphthyridin-7-yl)acetamide] | > 10000 nM |  |  |  |  |  |  |  |  |  |  | 
14.7 nM |  | CCCC(O)c1cc(C)c(-c2cc3cnc(NC(=O)[C@H]4C[C@H]4F)cc3n(C)c2=O)cn1 (single isomer, unassigned) [Example S43, Isomer B] |  | 335 nM | 189 nM | 843 nM | > 6150 nM | 2710 nM |  |  |  |  |  | 
 | 8.01 nM | CCCC(O)c1cc(C)c(-c2cc3cnc(NC(=O)[C@H]4C[C@H]4F)cc3n(C)c2=O)cn1 (single isomer, unassigned) [Example S43, Isomer A] | 1690 nM | 152 nM | 52.1 nM | 82.1 nM | 399 nM | 457 nM |  |  |  |  |  | 
8.64 nM |  | CCC(O)c1cc(C)c(-c2cc3cnc(NC(=O)[C@H]4CC4(F)F)cc3n(C)c2=O)cn1 (single isomer, unassigned) [Example S49, Isomer B] | 733 nM |  |  | 12.6 nM | 103 nM | 153 nM | 74.9 nM |  |  |  |  | 
47.4 nM |  | CCC(O)c1cc(C)c(-c2cc3cnc(NC(=O)[C@@H]4C[C@@H]4F)cc3n(C)c2=O)cn1 (single isomer, unassigned; isomer a) [Example S40, Isomer A] |  |  | 492 nM | 211 nM | 446 nM | 496 nM |  |  |  |  |  | 1230 nM
7.23 nM |  | CCCC(O)c1cc(C)c(-c2cc3cnc(NC(C)=O)cc3n(C)c2=O)cn1 (single isomer, unassigned) [Example S67, Enantiomer A, N-(3-{6-[1-hydroxybutyl]-4-methylpyridin-3-yl}-1-methyl-2-oxo-1,6-naphthyridin-7-yl)acetamide] | 9480 nM |  |  |  |  |  | 215 nM |  | 252 nM | 974 nM | 1390 nM | 
